Measurements as given in patent publication EP0100527A1, “4H-1,4-benzothiazines for use as medicaments” (BAYER AG, priority 1982, dated 1984).

Target: T1, Lipoxygenase in Kaninchen-PMN-Leukozyten (Oryctolagus cuniculus, UniProt G1SNX0)
T1 construct: Die polymorphkernigen Leukozyten des Menschen und des Kaninchens metabolisieren die Arachidonsäure; endogenous in cells; host or cells: rabbit polymorphonuclear (PMN) leukocytes
T1 sequence (G1SNX0 1-674): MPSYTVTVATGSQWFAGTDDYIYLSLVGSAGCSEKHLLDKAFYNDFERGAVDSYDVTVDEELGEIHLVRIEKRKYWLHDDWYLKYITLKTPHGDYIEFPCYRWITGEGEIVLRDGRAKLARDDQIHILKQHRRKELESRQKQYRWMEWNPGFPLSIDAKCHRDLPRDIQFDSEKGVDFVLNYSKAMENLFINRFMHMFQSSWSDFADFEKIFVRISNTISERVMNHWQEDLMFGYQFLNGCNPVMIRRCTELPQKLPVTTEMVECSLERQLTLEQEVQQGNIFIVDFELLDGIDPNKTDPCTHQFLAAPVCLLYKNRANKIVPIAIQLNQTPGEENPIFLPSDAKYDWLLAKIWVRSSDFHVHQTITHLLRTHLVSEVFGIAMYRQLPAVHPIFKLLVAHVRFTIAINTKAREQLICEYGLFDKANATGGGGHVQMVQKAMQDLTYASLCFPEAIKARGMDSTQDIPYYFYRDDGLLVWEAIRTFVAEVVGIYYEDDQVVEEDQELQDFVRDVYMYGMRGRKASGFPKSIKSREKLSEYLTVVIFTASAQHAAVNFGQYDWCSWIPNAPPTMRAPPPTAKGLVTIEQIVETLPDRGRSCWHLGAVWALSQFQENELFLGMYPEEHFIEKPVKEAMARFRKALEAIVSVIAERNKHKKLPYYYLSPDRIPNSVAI
Experiment: Inhibition of lipoxygenase (release of 5-HETE and leukotriene B4) in rabbit PMN leukocytes
Assay type: cell-based
Excerpt: Analog den vorstehenden Ausführungen lassen sich die lipoxygenasehemmenden Eigenschaften der erfindungsgemäßen Verbindungen auch an Leukozyten nachweisen.
Die polymorphkernigen Leukozyten des Menschen und des Kaninchens metabolisieren die Arachidonsäure zu 5-Hydroxy-5,8,11,14-eikosatetraensäure (5-HETE) und Leukotrien B4 (5S, 12R-Dihydroxy-6 cis, 8,10-trans-14 ciseikosatetraensäure). Die Hemmung der Freisetzung von 5-HETE und Leukotrien B4 aus den Leukozyten stellt ein Maß für den lipoxygenasehemmenden Effekt der erfindungsgemäßen Verbindungen dar. (Vergl. Tab. 1) Der Test mit den Humanleukozyten wurde nach Borgeat und Samuelsson (j. Biol. Chem. 254; 2643, 1979 und Proc. Natl. Acad. Sci. USA, 76, 2148 1979), mit Kaninchenleukozyten nach Walker und .Parish (Inter. Archs. Allergy appl. Immun. 66, 83, 1981) durchgeführt.

Minimale Konzentration für die Hemmung der Lipoxygenase in Kaninchen-PMN-Leukozyten, 5e-06 g/mL:
CCN1C=C(C(=O)O)Sc2cc([N+](=O)[O-])ccc21 [Beispiel 37]
CCN1C=C(C(=O)OC)Sc2cc([N+](=O)[O-])ccc21 [Beispiel 40]

Minimale Konzentration für die Hemmung der Lipoxygenase in Kaninchen-PMN-Leukozyten, 10^-6 g/ml:
CCCCOC(=O)C1=C(C)Nc2ccccc2S1 [Beispiel 9]
CC(=O)C1=C(C)Nc2ccccc2S1 [Beispiel 11]
CC1=C(C(=O)OCCc2ccccc2)Sc2ccccc2N1 [Beispiel 12]
COc1ccc2c(c1)SC(C(=O)OCCC#N)=C(C)N2 [Beispiel 28]
CSCCOC(=O)C1=C(C)Nc2ccc(C)cc2S1 [Beispiel 29]
CCOC(=O)C1=CNc2ccc(OC)cc2S1 [Beispiel 32]

Minimale Konzentration für die Hemmung der Lipoxygenase in Kaninchen-PMN-Leukozyten, 5x10^-7 - 10^-6 g/ml:
CC1=C(C(=O)OCCC#N)Sc2ccccc2N1 [Beispiel 1, 3-Methyl-4H-1,4-benzothiazin-2-carbonsäure-(2-cyanethyl)-ester]
COC(=O)C1=C(C)Nc2ccccc2S1 [Beispiel 2]
CCOC(=O)C1=C(CC)Nc2ccccc2S1 [Beispiel 4]
CC1=C(C(=O)OC2CCCCC2)Sc2ccccc2N1 [Beispiel 5]
CSCCOC(=O)C1=C(C)Nc2ccccc2S1 [Beispiel 8]
CC1=C(C(=O)OCc2ccccc2)Sc2ccccc2N1 [Beispiel 13]
